In brackets after ≈: the same amount, converted by molar mass.
Tests used:
Bacillus subtilis = assay: Antimicrobial activity against Bacillus subtilis after 24 hr by serial dilution method; assay type: functional
[1] = test system: Mammalian orthoreovirus 1; assay: Antiviral activity against Mammalian orthoreovirus 1 infected Vero cells assessed as inhibition of virus-induced cytopathicity; assay type: functional, organism-based; conditions: Mammalian orthoreovirus 1, Vero
[2] = test system: Vesicular stomatitis virus; assay: Antiviral activity against Vesicular stomatitis virus infected human HeLa cells assessed as inhibition of virus-induced cytopathicity; assay type: functional, organism-based
Human alphaherpesvirus 1 [3] = assay: Antiviral activity against TK(-) aciclovir-resistant Human herpesvirus 1 strain KOS infected in human HEL cells assessed as inhibition of virus-induced cytopathicity; assay type: functional, organism-based; conditions: Human alphaherpesvirus 1, KOS
Candida albicans = assay: Antimicrobial activity against Candida albicans after 48 hr by serial dilution method; assay type: functional
Punta Toro virus = assay: Antiviral activity against Punta Toro virus infected Vero cells assessed as inhibition of virus-induced cytopathicity; assay type: functional, organism-based
[4] = test system: Respiratory syncytial virus; assay: Antiviral activity against Respiratory syncytial virus infected human HeLa cells assessed as inhibition of virus-induced cytopathicity; assay type: functional, organism-based
[5] = test system: Human immunodeficiency virus 1; assay: Antiviral activity against Human immunodeficiency virus 1 IIIB infected human MT4 cells assessed as inhibition of virus-induced cytopathicity; assay type: functional, organism-based
[6] = Cytotoxicity against Homo sapiens (human) MT4 cells; assay type: cell-based
Coxsackievirus B4 [7] = assay: Antiviral activity against Human coxsackievirus B4 infected human HeLa cells assessed as inhibition of virus-induced cytopathicity; assay type: functional, organism-based; conditions: Enterovirus B
[8] = Cytotoxicity against Homo sapiens (human) HEL cells; assay type: cell-based
Aspergillus niger = assay: Antimicrobial activity against Aspergillus niger after 7 days by serial dilution method; assay type: functional
Escherichia coli = assay: Antimicrobial activity against Escherichia coli after 24 hr by serial dilution method; assay type: functional
Coxsackievirus B4 [9] = assay: Antiviral activity against Human coxsackievirus B4 infected Vero cells assessed as inhibition of virus-induced cytopathicity; assay type: functional, organism-based; conditions: Enterovirus B
Vaccinia virus = assay: Antiviral activity against Vaccinia virus infected human HEL cells assessed as inhibition of virus-induced cytopathicity; assay type: functional, organism-based; conditions: Orthopoxvirus vaccinia
[10] = Cytotoxicity against Homo sapiens (human) HeLa cells; assay type: cell-based
Human alphaherpesvirus 1 [11] = assay: Antiviral activity against Human herpesvirus 1 strain KOS infected in human HEL cells assessed as inhibition of virus-induced cytopathicity; assay type: functional, organism-based; conditions: Human alphaherpesvirus 1, KOS
Human respirovirus 3 = assay: Antiviral activity against Human parainfluenza virus 3 infected Vero cells assessed as inhibition of virus-induced cytopathicity; assay type: functional, organism-based; conditions: Human respirovirus 3, Vero
[12] = test system: Human immunodeficiency virus 2; assay: Antiviral activity against Human immunodeficiency virus type 2 (ISOLATE ROD) infected human MT4 cells assessed as inhibition of virus-induced cytopathicity; assay type: functional, organism-based; conditions: Human immunodeficiency virus 2, ISOLATE ROD
Human alphaherpesvirus 2 = assay: Antiviral activity against Human herpesvirus 2 strain G infected human HEL cells assessed as inhibition of virus-induced cytopathicity; assay type: functional, organism-based; conditions: Human alphaherpesvirus 2, strain G
Sindbis virus = assay: Antiviral activity against Sindbis virus infected Vero cells assessed as inhibition of virus-induced cytopathicity; assay type: functional, organism-based
[13] = Cytotoxicity against Chlorocebus aethiops (African green monkey) Vero cells assessed as alteration in cell morphology; assay type: cell-based; conditions: chlorocebus sabaeus
Staphylococcus aureus = assay: Antimicrobial activity against Staphylococcus aureus after 24 hr by serial dilution method; assay type: functional

In the case of `Cc1ccc(/C=N/N(C(=O)c2ccccc2)C(=O)c2ccncc2)cc1`, the “-logMIC” value (Bacillus subtilis) is reported as 2.14, the EC50 [1] is reported as over 20 µg/mL and the EC50 [2] is reported as over 20 µg/mL. The EC50 (Human alphaherpesvirus 1 [3]) was over 100 µg/mL, the “-logMIC” value (Candida albicans) was 2.74 and the EC50 (Punta Toro virus) was over 20 µg/mL. It also gave an EC50 [4] of over 20 µg/mL, an EC50 [5] of over 42 µg/mL and a CC50 [6] of 42 µg/mL (≈ 122 µM). The EC50 (Coxsackievirus B4 [7]) was over 20 µg/mL, the MCC [8] was over 100 µg/mL and the “-logMIC” value (Aspergillus niger) was 2.44. For the same compound, the “-logMIC” value (Escherichia coli) was 2.44, the EC50 (Coxsackievirus B4 [9]) was over 20 µg/mL and the EC50 (Vaccinia virus) was over 100 µg/mL. For the same compound, the MCC [10] was 100 µg/mL, the EC50 (Human alphaherpesvirus 1 [11]) was over 100 µg/mL and the EC50 (Human respirovirus 3) was over 20 µg/mL. The EC50 [12] was over 42 µg/mL, the EC50 (Human alphaherpesvirus 2) was over 100 µg/mL and the EC50 (Sindbis virus) was over 20 µg/mL. The MCC [13] was at least 20 µg/mL and the “-logMIC” value (Staphylococcus aureus) was 2.44.
With `COc1cccc(OC)c1/C=N/NC(=O)c1ccncc1` the “-logMIC” value (Bacillus subtilis) was 2.06, the EC50 [1] was over 20 µg/mL and the EC50 [2] was over 20 µg/mL. The EC50 (Human alphaherpesvirus 1 [3]) was over 100 µg/mL, the “-logMIC” value (Candida albicans) was 2.36 and the EC50 (Punta Toro virus) was over 20 µg/mL. The EC50 [4] was over 20 µg/mL, the EC50 [5] was over 9 µg/mL and the CC50 [6] was 9 µg/mL (≈ 31.5 µM). For the same compound, the EC50 (Coxsackievirus B4 [7]) was over 20 µg/mL, the MCC [8] was over 100 µg/mL and the “-logMIC” value (Aspergillus niger) was 2.36. The “-logMIC” value (Escherichia coli) was 2.06, the EC50 (Coxsackievirus B4 [9]) was over 20 µg/mL and the EC50 (Vaccinia virus) was over 100 µg/mL. It also gave an MCC [10] of 100 µg/mL, an EC50 (Human alphaherpesvirus 1 [11]) of over 100 µg/mL and an EC50 (Human respirovirus 3) of over 20 µg/mL. The EC50 [12] was over 9 µg/mL, the EC50 (Human alphaherpesvirus 2) was over 100 µg/mL and the EC50 (Sindbis virus) was over 20 µg/mL. For the same compound, the MCC [13] was 100 µg/mL and the “-logMIC” value (Staphylococcus aureus) was 2.06.
In the case of `COc1cc(/C=N/NC(=O)c2ccncc2)cc(OC)c1OC`, the “-logMIC” value (Bacillus subtilis) is reported as 2.4, the EC50 [1] is reported as over 100 µg/mL and the EC50 [2] is reported as over 100 µg/mL. For the same compound, the EC50 (Human alphaherpesvirus 1 [3]) was over 100 µg/mL, the “-logMIC” value (Candida albicans) was 2.4 and the EC50 (Punta Toro virus) was over 100 µg/mL. It also gave an EC50 [4] of over 100 µg/mL, an EC50 [5] of over 110 µg/mL and a CC50 [6] of 110 µg/mL (≈ 349 µM). For the same compound, the EC50 (Coxsackievirus B4 [7]) was over 100 µg/mL, the MCC [8] was over 100 µg/mL and the “-logMIC” value (Aspergillus niger) was 2.4. The “-logMIC” value (Escherichia coli) was 2.1, the EC50 (Coxsackievirus B4 [9]) was over 100 µg/mL and the EC50 (Vaccinia virus) was over 100 µg/mL. For the same compound, the MCC [10] was at least 100 µg/mL, the EC50 (Human alphaherpesvirus 1 [11]) was over 100 µg/mL and the EC50 (Human respirovirus 3) was over 100 µg/mL. For the same compound, the EC50 [12] was over 110 µg/mL, the EC50 (Human alphaherpesvirus 2) was over 100 µg/mL and the EC50 (Sindbis virus) was over 100 µg/mL. For the same compound, the MCC [13] was over 100 µg/mL and the “-logMIC” value (Staphylococcus aureus) was 2.1.
With `CSc1ccc(/C=N/N(C(=O)c2ccccc2)C(=O)c2ccncc2)cc1` the “-logMIC” value (Bacillus subtilis) was 2.18, the EC50 [1] was over 100 µg/mL and the EC50 [2] was over 100 µg/mL. The EC50 (Human alphaherpesvirus 1 [3]) was over 100 µg/mL, the “-logMIC” value (Candida albicans) was 2.78 and the EC50 (Punta Toro virus) was over 100 µg/mL. The EC50 [4] was over 100 µg/mL, the EC50 [5] was over 69 µg/mL and the CC50 [6] was 69 µg/mL (≈ 184 µM). The EC50 (Coxsackievirus B4 [7]) was over 100 µg/mL, the MCC [8] was over 100 µg/mL and the “-logMIC” value (Aspergillus niger) was 2.48. For the same compound, the “-logMIC” value (Escherichia coli) was 2.48, the EC50 (Coxsackievirus B4 [9]) was 9 µg/mL (≈ 24 µM) and the EC50 (Vaccinia virus) was over 100 µg/mL. The MCC [10] was over 100 µg/mL, the EC50 (Human alphaherpesvirus 1 [11]) was over 100 µg/mL and the EC50 (Human respirovirus 3) was over 100 µg/mL. For the same compound, the EC50 [12] was over 69 µg/mL, the EC50 (Human alphaherpesvirus 2) was over 100 µg/mL and the EC50 (Sindbis virus) was over 100 µg/mL. The MCC [13] was at least 100 µg/mL and the “-logMIC” value (Staphylococcus aureus) was 2.18.

— ChEMBL document CHEMBL3046007, “Isonicotinic acid hydrazide derivatives: synthesis, antimicrobial activity, and QSAR studies” (Med Chem Res, 2012)
